A word on the CC50: it is the concentration at which the toxic effect on the cells reaches its halfway point. For orientation: IC50 means the concentration that gives 50% inhibition. In general, EC50 refers to the concentration that produces a half-maximal response. A word on the AC50: it is the concentration at which the activity in the assay is half-maximal.

Here are results for seven compounds from ChEMBL document CHEMBL1201862, “PubChem BioAssay data set” (2004).

The nature of assay [1]: HepG2 cell cytotoxicity, dose response, cytotoxicity control for non-replicating M. tuberculosis project (AID 489018). In kind it is functional. The note with it: Mycobacterium tuberculosis.
Assay [2] has as its target Beta-galactosidase (Escherichia coli, UniProt Q8VNN2). Nature of the assay: beta-galactosidase enzyme inhibitors and activators, dose response, artefact control for CCR6 antagonist project, biochemical, E. coli enzyme, set 3 (AID 504712). The class given is functional.
Assay [3] concerns the target T1, Heat shock factor protein 1 (Mus musculus, UniProt P38532).
T1 sequence (P38532 whole entry): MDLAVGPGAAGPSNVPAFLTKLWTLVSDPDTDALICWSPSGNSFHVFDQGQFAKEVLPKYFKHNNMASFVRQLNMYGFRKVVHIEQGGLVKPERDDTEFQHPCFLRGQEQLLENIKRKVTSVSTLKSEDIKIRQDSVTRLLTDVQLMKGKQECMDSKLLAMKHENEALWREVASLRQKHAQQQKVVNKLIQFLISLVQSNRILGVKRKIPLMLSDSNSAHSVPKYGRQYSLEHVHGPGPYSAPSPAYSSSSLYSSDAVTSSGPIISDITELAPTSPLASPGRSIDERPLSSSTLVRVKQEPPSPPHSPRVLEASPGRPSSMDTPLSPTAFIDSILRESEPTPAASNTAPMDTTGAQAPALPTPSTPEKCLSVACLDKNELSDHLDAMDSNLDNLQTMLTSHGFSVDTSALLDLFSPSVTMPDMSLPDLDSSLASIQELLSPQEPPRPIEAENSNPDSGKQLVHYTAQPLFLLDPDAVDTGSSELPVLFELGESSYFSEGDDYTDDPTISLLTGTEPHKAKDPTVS
The assay can be described thus: inhibition of MG132-induced HSE-luciferase signal, confirmation, cell-based, NIH3T3, luminescence, dose retest (AID 2382).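 Further: NIH3T3 fibroblasts with HSF1-driven luciferase reporter stressed by proteasome inhibitor MG132; luminescence from HSF1-driven luciferase expression after 8 hours of MG132 stress.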 In kind it is functional.

The nature of assay [4]: Fluorescence-based biochemical high throughput screening dose response assay to identify inhibitors of Crimean-Congo Hemorrhagic Fever (CCHF) viral ovarian tumor domain protease (vOTU): Pep-AMC substrate.
The target in assay [5] is T2, Sentrin-specific protease 7 (Homo sapiens, UniProt Q9BQF6).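 Further: Luminescence-based dose-response confirmation of ultra-high-throughput screening hits, measuring inhibition of SENP7.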
T2 sequence (Q9BQF6 whole entry): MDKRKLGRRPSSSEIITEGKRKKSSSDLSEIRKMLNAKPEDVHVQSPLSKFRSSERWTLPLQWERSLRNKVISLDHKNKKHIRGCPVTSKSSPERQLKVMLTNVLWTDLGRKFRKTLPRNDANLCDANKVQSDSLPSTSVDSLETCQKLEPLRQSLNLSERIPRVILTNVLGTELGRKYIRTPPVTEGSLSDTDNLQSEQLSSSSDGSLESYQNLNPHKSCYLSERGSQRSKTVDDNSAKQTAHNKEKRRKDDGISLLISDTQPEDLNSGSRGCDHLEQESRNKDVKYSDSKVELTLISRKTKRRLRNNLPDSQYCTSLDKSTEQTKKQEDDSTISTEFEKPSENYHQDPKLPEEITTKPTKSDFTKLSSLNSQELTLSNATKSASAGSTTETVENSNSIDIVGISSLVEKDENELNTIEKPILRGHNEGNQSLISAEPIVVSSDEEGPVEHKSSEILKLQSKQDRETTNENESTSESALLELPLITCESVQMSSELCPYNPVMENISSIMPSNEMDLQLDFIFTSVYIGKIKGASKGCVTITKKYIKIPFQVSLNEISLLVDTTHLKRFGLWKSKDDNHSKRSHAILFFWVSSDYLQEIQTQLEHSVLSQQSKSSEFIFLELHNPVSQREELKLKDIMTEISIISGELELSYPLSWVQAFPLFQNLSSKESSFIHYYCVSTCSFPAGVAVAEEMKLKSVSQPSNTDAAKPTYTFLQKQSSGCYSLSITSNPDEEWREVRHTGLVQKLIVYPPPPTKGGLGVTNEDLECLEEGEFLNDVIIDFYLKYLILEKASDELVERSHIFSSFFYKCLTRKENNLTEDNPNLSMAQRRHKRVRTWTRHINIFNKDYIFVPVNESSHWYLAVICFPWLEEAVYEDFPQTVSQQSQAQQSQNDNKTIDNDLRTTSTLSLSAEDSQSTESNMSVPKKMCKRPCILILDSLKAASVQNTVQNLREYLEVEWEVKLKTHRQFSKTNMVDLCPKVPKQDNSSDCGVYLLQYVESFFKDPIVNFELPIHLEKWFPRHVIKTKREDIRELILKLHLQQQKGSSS
In kind it is functional.

Assay [6] has as its target T3, Protein Tat (Human immunodeficiency virus type 1 group M subtype B (isolate HXB2)(HIV-1), UniProt P04608).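 Further: tat binding to TAR RNA read out by fluorescence polarization.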
T3 sequence (P04608 whole entry): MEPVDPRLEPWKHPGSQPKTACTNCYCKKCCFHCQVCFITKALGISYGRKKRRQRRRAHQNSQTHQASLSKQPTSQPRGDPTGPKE
In kind it is functional.

The target in assay [7] is Voltage-gated N-type calcium channel alpha-1B subunit/Amyloid beta A4 precursor protein-binding family A member 1 (Homo sapiens, UniProt Q00975+Q02410). The class given is protein assay.
For assay [8], the target named is Neuropeptide Y receptor type 1 (Homo sapiens, UniProt P25929). The class given is functional.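 Further: HEK293 cells with a CNG channel challenged with NPY then isoproterenol; potency as antagonist that reverses NPY suppression of cAMP signal.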
Neuropeptide Y receptor type 1, sequence (P25929 whole entry): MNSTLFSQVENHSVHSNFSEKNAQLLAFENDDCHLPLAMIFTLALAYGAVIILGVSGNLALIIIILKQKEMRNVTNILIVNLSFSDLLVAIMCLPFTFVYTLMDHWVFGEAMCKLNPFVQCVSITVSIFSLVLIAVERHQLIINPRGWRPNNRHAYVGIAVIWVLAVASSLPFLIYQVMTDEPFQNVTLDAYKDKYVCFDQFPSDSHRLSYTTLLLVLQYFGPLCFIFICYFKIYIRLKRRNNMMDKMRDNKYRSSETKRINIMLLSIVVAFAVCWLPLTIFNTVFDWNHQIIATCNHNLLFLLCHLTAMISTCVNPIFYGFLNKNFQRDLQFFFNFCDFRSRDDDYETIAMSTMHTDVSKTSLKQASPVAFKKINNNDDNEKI
Assay [9] addresses Peroxisome proliferator-activated receptor gamma/Nuclear receptor coactivator 1 (Homo sapiens, UniProt P37231). The assay can be described thus: TR-FRET dose response biochemical High Throughput Screening assay for agonists of the steroid receptor coactivator 1 (SRC-1) recruitment by the peroxisome proliferator-activated receptor gamma (PPAR gamma): non-selective agonists. [Related pubchem assays (depositor defined):AID1300, AID1808, AID504735, AID631]. In kind it is protein assay. A general note: Time-resolved FRET reads energy transfer from a long-lived donor to a nearby acceptor.

The nature of assay [10]: Artemis endonuclease inhibitor potency, dose response, biochemical, fluorescence intensity (AID 720701).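 Further: Artemis endonuclease enzyme.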 In kind it is functional.
The test system of assay [11] is BJ. The assay can be described thus: cytotoxicity toward Ras-transformed BJeLR fibroblasts, dose response, cell-based, alamar blue fluorescence, cherrypicked samples (AID 2631).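 Further: confirmatory dose-response assay in RAS-dependent BJ fibroblasts engineered with TERT, LT and ST, with cytotoxicity read by fluorescence.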 The class given is functional. The settings on record: Homo sapiens.
Assay [12] can be described thus: HEK293T cytotoxicity, dose response, cytotoxicity control for miR-122 modulator project, cell-based, activator set, cherry-pick (AID 720690).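 Further: HEK293T human cells scored for general mammalian cytotoxicity.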 The class given is functional.
The nature of assay [13]: insulin promoter down-regulators in MIN6 cells, imaging, high-content screening, mouse beta cells (AID 1628). In kind it is functional.
The test system of assay [14] is HEK293. Nature of the assay: SAR Analysis of small molecule inhibitors of T-cell specific antigen receptor-induced NF-kB activation in a HEK-293T cell line using a luminescence assay. [Related pubchem assays (depositor defined):AID435003, AID435012, AID489026]. In kind it is functional, cell-based. The note with it: Homo sapiens.

Active and inactive are the calls of the source.

Peroxisome proliferator-activated receptor gamma/Nuclear receptor coactivator 1, sequence (P37231 whole entry): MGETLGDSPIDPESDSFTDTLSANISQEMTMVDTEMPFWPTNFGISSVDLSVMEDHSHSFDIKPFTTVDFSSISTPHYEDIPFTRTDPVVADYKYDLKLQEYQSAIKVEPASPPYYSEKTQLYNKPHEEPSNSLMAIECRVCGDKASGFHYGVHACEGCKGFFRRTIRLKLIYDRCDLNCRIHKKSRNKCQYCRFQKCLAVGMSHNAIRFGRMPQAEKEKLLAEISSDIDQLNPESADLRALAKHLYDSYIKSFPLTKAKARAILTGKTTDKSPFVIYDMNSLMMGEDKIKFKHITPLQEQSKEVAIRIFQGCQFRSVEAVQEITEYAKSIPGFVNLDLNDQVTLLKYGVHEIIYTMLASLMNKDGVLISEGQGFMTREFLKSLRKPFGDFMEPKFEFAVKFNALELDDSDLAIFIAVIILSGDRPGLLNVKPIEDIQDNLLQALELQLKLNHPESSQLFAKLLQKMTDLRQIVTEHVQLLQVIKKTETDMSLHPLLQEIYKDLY
Peroxisome proliferator-activated receptor gamma/Nuclear receptor coactivator 1, sequence (Q15788 whole entry, further chain): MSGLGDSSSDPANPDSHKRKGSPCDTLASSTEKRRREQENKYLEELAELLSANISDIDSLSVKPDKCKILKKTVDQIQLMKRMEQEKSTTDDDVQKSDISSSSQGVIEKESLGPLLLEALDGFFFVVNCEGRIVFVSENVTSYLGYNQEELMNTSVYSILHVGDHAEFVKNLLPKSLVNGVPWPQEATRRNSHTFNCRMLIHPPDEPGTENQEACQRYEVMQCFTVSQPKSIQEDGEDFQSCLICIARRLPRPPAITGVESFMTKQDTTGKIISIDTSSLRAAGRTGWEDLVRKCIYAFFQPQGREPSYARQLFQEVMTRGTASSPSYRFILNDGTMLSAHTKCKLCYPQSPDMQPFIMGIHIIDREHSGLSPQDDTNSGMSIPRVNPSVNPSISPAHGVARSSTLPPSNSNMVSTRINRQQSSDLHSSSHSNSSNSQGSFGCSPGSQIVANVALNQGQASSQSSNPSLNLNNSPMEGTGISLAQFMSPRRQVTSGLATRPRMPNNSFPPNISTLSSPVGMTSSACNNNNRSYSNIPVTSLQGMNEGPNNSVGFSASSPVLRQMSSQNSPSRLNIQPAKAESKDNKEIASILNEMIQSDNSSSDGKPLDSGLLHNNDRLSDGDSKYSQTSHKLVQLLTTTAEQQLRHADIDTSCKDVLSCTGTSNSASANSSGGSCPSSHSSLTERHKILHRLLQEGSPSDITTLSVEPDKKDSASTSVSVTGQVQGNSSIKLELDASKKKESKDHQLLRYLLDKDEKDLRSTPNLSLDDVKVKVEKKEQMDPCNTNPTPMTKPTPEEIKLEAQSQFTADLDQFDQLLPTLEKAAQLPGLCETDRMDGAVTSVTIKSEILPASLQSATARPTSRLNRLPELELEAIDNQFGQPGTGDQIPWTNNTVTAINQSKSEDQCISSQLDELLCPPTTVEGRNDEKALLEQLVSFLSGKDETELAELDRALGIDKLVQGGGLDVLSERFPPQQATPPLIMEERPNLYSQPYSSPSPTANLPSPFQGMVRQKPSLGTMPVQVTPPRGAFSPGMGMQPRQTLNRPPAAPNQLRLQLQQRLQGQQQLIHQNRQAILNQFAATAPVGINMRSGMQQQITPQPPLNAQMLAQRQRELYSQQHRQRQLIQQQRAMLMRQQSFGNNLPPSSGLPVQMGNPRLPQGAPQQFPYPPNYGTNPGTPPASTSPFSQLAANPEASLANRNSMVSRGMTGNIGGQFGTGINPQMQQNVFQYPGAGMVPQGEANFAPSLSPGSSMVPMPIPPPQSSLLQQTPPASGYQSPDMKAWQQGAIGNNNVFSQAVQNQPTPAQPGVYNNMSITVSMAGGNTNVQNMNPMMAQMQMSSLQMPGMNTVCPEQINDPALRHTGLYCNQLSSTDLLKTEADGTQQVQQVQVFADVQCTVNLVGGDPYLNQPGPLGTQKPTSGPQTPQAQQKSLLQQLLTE
Beta-galactosidase, sequence (Q8VNN2 whole entry): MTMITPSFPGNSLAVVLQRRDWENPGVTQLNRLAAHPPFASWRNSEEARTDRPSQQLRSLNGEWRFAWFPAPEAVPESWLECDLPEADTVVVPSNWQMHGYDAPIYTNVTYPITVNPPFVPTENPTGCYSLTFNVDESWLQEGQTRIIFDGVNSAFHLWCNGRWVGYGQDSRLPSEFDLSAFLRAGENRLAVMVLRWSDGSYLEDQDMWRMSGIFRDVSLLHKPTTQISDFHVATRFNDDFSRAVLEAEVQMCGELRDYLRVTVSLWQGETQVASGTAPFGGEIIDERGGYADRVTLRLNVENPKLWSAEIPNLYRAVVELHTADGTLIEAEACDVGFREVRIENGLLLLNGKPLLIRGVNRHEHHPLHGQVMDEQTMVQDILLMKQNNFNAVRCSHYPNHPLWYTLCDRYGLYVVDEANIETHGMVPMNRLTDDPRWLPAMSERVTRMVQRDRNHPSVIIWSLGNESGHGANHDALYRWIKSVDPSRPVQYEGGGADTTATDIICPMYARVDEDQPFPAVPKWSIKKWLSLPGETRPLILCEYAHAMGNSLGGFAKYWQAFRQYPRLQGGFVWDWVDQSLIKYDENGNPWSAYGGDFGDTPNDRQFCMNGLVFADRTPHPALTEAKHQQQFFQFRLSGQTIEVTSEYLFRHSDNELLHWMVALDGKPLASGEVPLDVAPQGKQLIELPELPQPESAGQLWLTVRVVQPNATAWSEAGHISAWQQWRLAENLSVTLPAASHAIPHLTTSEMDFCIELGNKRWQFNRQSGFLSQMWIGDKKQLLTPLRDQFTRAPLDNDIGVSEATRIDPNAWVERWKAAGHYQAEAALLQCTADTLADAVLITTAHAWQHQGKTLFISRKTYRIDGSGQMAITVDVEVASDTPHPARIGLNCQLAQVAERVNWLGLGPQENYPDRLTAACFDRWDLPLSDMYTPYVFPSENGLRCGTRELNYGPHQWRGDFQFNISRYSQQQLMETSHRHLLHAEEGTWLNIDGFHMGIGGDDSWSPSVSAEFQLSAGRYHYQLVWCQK

For the compound `COC(CNC(=O)c1ccc2c3c(onc13)-c1ccccc1C2=O)OC`, the CC50 in assay [1] was 15.1 µM (active). The IC50 in assay [2] is > 66.6 µM (inactive).
Take `COC(=O)[C@@H]1[C@@H](C(=O)OC)C2(c3ccccc3-c3ccccc32)N(c2ccc(Cl)cc2)N1C#N`: the EC50 in assay [3] was 8.22 µM (inconclusive).
For the compound `O=C(O)c1ccc(NC2=C/C(=N/S(=O)(=O)c3ccccc3)c3ccccc3C2=O)cc1`, the IC50 was > 157 nM (active) in assay [4] and 2.06 µM (active) in assay [5].
`COc1ccc(OC)c(Nc2cc3ccccc3c(O)n2)c1`: the IC50 in [5] was 2.19 µM (active).
With `COc1cc(-c2ccc(Nc3ccccc3C(=O)O)c(OC)c2)ccc1Nc1ccccc1C(=O)O`, the IC50 in [6] is 12.7 µM (inconclusive); in assay [7] it was 7.6 µM (active).
`Nc1ccc2c(c1)C(=O)C(=O)c1ccccc1-2`: the results for the IC50 in assay [8] and in assay [10] were 4.54 µM (active) and < 630 nM (active), respectively. The CC50 in assay [1] is 7.59 µM (active). Further, the EC50 in assay [9] was 12.3 µM (inactive); in [11] it was 2.8 µM (active). Also, in assay [12], the AC50 was 6.54 µM (active).
For `CCCC(=O)NC(c1ccccc1OC)c1ccc2cccnc2c1O` (stereo unspecified), the IC50 in assay [13] is 1.71 µM (active); in assay [14], 12.5 µM (active).
